In brackets after ≈: the same amount, converted by molar mass.
What was measured:
[1] = system: Escherichia coli (E. coli) BAS849; assay: Antibacterial activity, microbroth dilution MIC (Table 1); type: cell-based; settings: microbroth dilution, super sensitive Gram-negative E. coli BAS849, read-out: MIC, BAS849
In short: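 Each strain is exposed to test compound in a microbroth dilution series; visible growth is scored macroscopically, and the lowest growth-free concentration is recorded as MIC in μg/mL.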

[2] = system: Staphylococcus aureus (S. aureus) 29213; assay: as above; type: cell-based; settings: microbroth dilution, Gram-positive S. aureus 29213, read-out: MIC, 29213
In short: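 Values are MICs (μg/mL): the smallest drug amount at which macroscopically visible bacterial growth is absent under assay conditions, from a microdilution method in broth.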

[3] = system: E. coli 25922; assay: as above; type: cell-based, Escherichia coli; settings: Escherichia coli; microbroth dilution; control Gram-negative E. coli 25922 strain; read-out: MIC, 25922
In short: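 MIC (μg/mL) is taken as the lowest concentration with no macroscopically visible growth. Strains tested by microbroth dilution: Gram-positive S. aureus 29213, control Gram-negative E. coli 25922, and super-sensitive E. coli BAS849.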

[4] = system: E. coli LZ3111; assay: Antibacterial activity, MIC, quinolone resistant strain (Table 2); type: cell-based; settings: Escherichia coli, LZ3111, read-out: MIC LZ3111
In short: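 Microbroth dilution method; MIC (μg/mL) is the lowest drug concentration preventing macroscopically visible growth under test conditions.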

[5] = system: Acinetobacter baumannii (A. baumannii) BAA747; assay: Antibacterial activity, MIC (Table 4); type: cell-based; settings: A. baumannii BAA747, read-out: MIC, BAA747
In short: (§1)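 Activity was measured by microbroth dilution. The MIC, in μg/mL, is the lowest drug concentration that prevents macroscopically visible growth under the test conditions. The resistant strains are multi-drug resistant clinical isolates.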

[6] = system: Klebsiella pneumoniae (K. pneumoniae) 35657; assay: Antibacterial activity, MIC (Table 4); type: cell-based; settings: K. pneumoniae 35657, read-out: MIC, 35657
In short: as §1

[7] = system: A. baumannii MXX2240; assay: Antibacterial activity, MIC, resistant strain (Table 4); type: cell-based; settings: Acinetobacter baumannii, MXX2240; resistant A. baumannii MMX2240, multi-drug resistant clinical isolate; read-out: MIC, MMX2240
In short: as §1

[8] = system: K. pneumoniae MXX1232; assay: as above; type: cell-based; settings: Klebsiella pneumoniae, MXX1232; resistant K. pneumoniae MMX1232, multi-drug resistant clinical isolate; read-out: MIC, MMX1232
In short: as §1

[9] = system: Pseudomonas aeruginosa (P. aeruginosa) 27853; assay: Antibacterial activity, MIC (Table 5); type: cell-based; settings: P. aeruginosa 27853, read-out: MIC, 27853
In short: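 Activity was measured by microbroth dilution. The MIC, in μg/mL, is the lowest drug concentration that prevents macroscopically visible growth under the test conditions.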

SMILES | MIC [1] [µg/mL] | MIC [2] [µg/mL] | MIC [3] [µg/mL] | MIC [4] [µg/mL] | MIC [5] [µg/mL] | MIC [6] [µg/mL] | MIC [7] [µg/mL] | MIC [8] [µg/mL] | MIC [9] [µg/mL]
CCc1c(-c2cnc3cc[nH]c3c2)[nH]c(=O)c(C(=O)O)c1O [Cpd 430, 5-ethyl-4-hydroxy-2-oxo-6-(1H-pyrrolo[3,2-b]pyridin-6-yl)-1,2-dihydropyridine-3-carboxylic acid] | 12.5 to 150 (≈ 41.8 to 501 µM) | 12.5 to 150 (≈ 41.8 to 501 µM) | 12.5 to 150 (≈ 41.8 to 501 µM) | 12.5 to 150 (≈ 41.8 to 501 µM) | 12.5 to 150 (≈ 41.8 to 501 µM) | 12.5 to 150 (≈ 41.8 to 501 µM) | 12.5 to 150 (≈ 41.8 to 501 µM) | 12.5 to 150 (≈ 41.8 to 501 µM) | 12.5 to 150 (≈ 41.8 to 501 µM)
Cc1c(-c2ccc3c(c2)CC(=O)N3)[nH]c(=O)c(C(=O)O)c1O [Cpd 427, 4-hydroxy-5-methyl-2-oxo-6-(2-oxoindolin-5-yl)-1,2-dihydropyridine-3-carboxylic acid] | 12.5 to 150 (≈ 41.6 to 500 µM) | 12.5 to 150 (≈ 41.6 to 500 µM) | 12.5 to 150 (≈ 41.6 to 500 µM) | 12.5 to 150 (≈ 41.6 to 500 µM) | 12.5 to 150 (≈ 41.6 to 500 µM) | 12.5 to 150 (≈ 41.6 to 500 µM) | 12.5 to 150 (≈ 41.6 to 500 µM) | 12.5 to 150 (≈ 41.6 to 500 µM) | 12.5 to 150 (≈ 41.6 to 500 µM)
CCc1c(-c2ccc3c(ccn3-c3cccc(N4CCCC4)c3)c2)[nH]c(=O)c(C(=O)O)c1O [Cpd 439, 5-ethyl-4-hydroxy-2-oxo-6-(1-(3-(pyrrolidin-1-yl)phenyl)-1H-indol-5-yl)-1,2-dihydropyridine-3-carboxylic acid] | 1 to 3.5 (≈ 2.25 to 7.89 µM) | 3.5 to 12.5 (≈ 7.89 to 28.2 µM) | 12.5 to 150 (≈ 28.2 to 338 µM) | 12.5 to 150 (≈ 28.2 to 338 µM) | 12.5 to 150 (≈ 28.2 to 338 µM) | 12.5 to 150 (≈ 28.2 to 338 µM) | 12.5 to 150 (≈ 28.2 to 338 µM) | 12.5 to 150 (≈ 28.2 to 338 µM) | 12.5 to 150 (≈ 28.2 to 338 µM)
CCc1c(-c2ccc3c(ccn3-c3ccc(N4CCCC4)cc3)c2)[nH]c(=O)c(C(=O)O)c1O [Cpd 440, 5-ethyl-4-hydroxy-2-oxo-6-(1-(4-(pyrrolidin-1-yl)phenyl)-1H-indol-5-yl)-1,2-dihydropyridine-3-carboxylic acid] | 12.5 to 150 (≈ 28.2 to 338 µM) | 12.5 to 150 (≈ 28.2 to 338 µM) | 12.5 to 150 (≈ 28.2 to 338 µM) | 12.5 to 150 (≈ 28.2 to 338 µM) | 12.5 to 150 (≈ 28.2 to 338 µM) | 12.5 to 150 (≈ 28.2 to 338 µM) | 12.5 to 150 (≈ 28.2 to 338 µM) | 12.5 to 150 (≈ 28.2 to 338 µM) | 12.5 to 150 (≈ 28.2 to 338 µM)
CCc1c(-c2ccc3c(c2)c(F)c(CNC(C)(C)C)n3C)[nH]c(=O)c(C(=O)O)c1O [Cpd 371, 6-(2-((tert-butylamino)methyl)-3-fluoro-1-methyl-1H-indol-5-yl)-5-ethyl-4-hydroxy-2-oxo-1,2-dihydropyridine-3-carboxylic acid] | < 1 | 12.5 to 150 (≈ 30.1 to 361 µM) | 1 to 3.5 (≈ 2.41 to 8.42 µM) | 12.5 to 150 (≈ 30.1 to 361 µM) | 3.5 to 12.5 (≈ 8.42 to 30.1 µM) | 1 to 3.5 (≈ 2.41 to 8.42 µM) | 3.5 to 12.5 (≈ 8.42 to 30.1 µM) | 12.5 to 150 (≈ 30.1 to 361 µM) | 12.5 to 150 (≈ 30.1 to 361 µM)
Cc1c(-c2ccc3cc[nH]c3n2)[nH]c(=O)c(C(=O)O)c1O [Cpd 434, 4-hydroxy-5-methyl-2-oxo-6-(1H-pyrrolo[2,3-b]pyridin-6-yl)-1,2-dihydropyridine-3-carboxylic acid] | 12.5 to 150 (≈ 43.8 to 526 µM) | 12.5 to 150 (≈ 43.8 to 526 µM) | 12.5 to 150 (≈ 43.8 to 526 µM) | 12.5 to 150 (≈ 43.8 to 526 µM) | 12.5 to 150 (≈ 43.8 to 526 µM) | 12.5 to 150 (≈ 43.8 to 526 µM) | 12.5 to 150 (≈ 43.8 to 526 µM) | 12.5 to 150 (≈ 43.8 to 526 µM) | 12.5 to 150 (≈ 43.8 to 526 µM)
CCc1c(-c2ccc3c(c2)c(F)c(CNC(C)C)n3C)[nH]c(=O)c(C(=O)O)c1O [Cpd 370, 5-ethyl-6-(3-fluoro-2-((isopropylamino)methyl)-1-methyl-1H-indol-5-yl)-4-hydroxy-2-oxo-1,2-dihydropyridine-3-carboxylic acid] | < 1 | 3.5 to 12.5 (≈ 8.72 to 31.1 µM) | < 1 | 3.5 to 12.5 (≈ 8.72 to 31.1 µM) | 1 to 3.5 (≈ 2.49 to 8.72 µM) | 3.5 to 12.5 (≈ 8.72 to 31.1 µM) | 3.5 to 12.5 (≈ 8.72 to 31.1 µM) | 12.5 to 150 (≈ 31.1 to 374 µM) | 12.5 to 150 (≈ 31.1 to 374 µM)
Cc1c(-c2cnc3cc[nH]c3c2)[nH]c(=O)c(C(=O)O)c1O [Cpd 431, 4-hydroxy-5-methyl-2-oxo-6-(1H-pyrrolo[3,2-b]pyridin-6-yl)-1,2-dihydropyridine-3-carboxylic acid] | 12.5 to 150 (≈ 43.8 to 526 µM) | 12.5 to 150 (≈ 43.8 to 526 µM) | 12.5 to 150 (≈ 43.8 to 526 µM) | 12.5 to 150 (≈ 43.8 to 526 µM) | 12.5 to 150 (≈ 43.8 to 526 µM) | 12.5 to 150 (≈ 43.8 to 526 µM) | 12.5 to 150 (≈ 43.8 to 526 µM) | 12.5 to 150 (≈ 43.8 to 526 µM) | 12.5 to 150 (≈ 43.8 to 526 µM)
CCc1c(-c2ccc3c(c2)cc2n3C[C@H](N)C[C@H]2NC)[nH]c(=O)c(C(=O)O)c1O.Cl.Cl (relative stereo) [Cpd 422, 6-(trans-7-amino-9-(methylamino)-6,7,8,9-tetrahydropyrido[1,2-a]indol-2-yl)-5-ethyl-4-hydroxy-2-oxo-1,2-dihydropyridine-3-carboxylic acid bis-hydrochloride] | 1 to 3.5 | 12.5 to 150 | 12.5 to 150 | 12.5 to 150 | 12.5 to 150 | 3.5 to 12.5 | 12.5 to 150 | 12.5 to 150 | 12.5 to 150

Reference: patent publication US9409905B2, “Antibacterial compounds and methods for use” (PTC THERAPEUTICS, INC., priority 2011, dated 2016)
